Assay results as given in the supplement of paper PMC10307832.

What was measured:
Test in all cases: relative viability (nuclei count vs DMSO), 5 days (fraction); higher = more cells survive
HCC-78 = system: HCC-78
Summary of the method: (§1)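 Medians of duplicate plates are given as relative viability. That measure is the nuclei count in treated wells divided by the count in vehicle wells. Counts were taken on 4× images of lung cancer cell lines in 1536-well plates, 5 days after pin-tool dosing the day after seeding with one drug alone or a fixed anchor-drug dose plus five library-drug doses (not always all listed) in √10 steps.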

NCI-H2228 = system: NCI-H2228
Summary of the method: as §1

NCI-H460 = system: NCI-H460
Summary of the method: as §1

NCI-H358 = system: NCI-H358
Summary of the method: as §1

RERF-LC-KJ = system: RERF-LC-KJ
Summary of the method: as §1

NCI-H2347 = system: NCI-H2347
Summary of the method: as §1

NCI-H1734 = system: NCI-H1734
Summary of the method: as §1

PC-3 [JPC-3] = system: PC-3 [JPC-3]
Summary of the method: as §1

LXF-289 = system: LXF-289
Summary of the method: as §1

HOP-62 = system: HOP-62
Summary of the method: as §1

NCI-H647 = system: NCI-H647
Summary of the method: as §1

A-427 = system: A-427
Summary of the method: as §1

SW 1573 = system: SW 1573
Summary of the method: as §1

LOU-NH91 = system: LOU-NH91
Summary of the method: as §1

LC-2-ad = system: LC-2-ad
Summary of the method: as §1

NCI-H1975 = system: NCI-H1975
Summary of the method: as §1

NCI-H1915 = system: NCI-H1915
Summary of the method: as §1

NCI-H1792 = system: NCI-H1792
Summary of the method: as §1

NCI-H2126 = system: NCI-H2126
Summary of the method: as §1

SK-LU-1 = system: SK-LU-1
Summary of the method: as §1

HCC-15 = system: HCC-15
Summary of the method: as §1

NCI-H1755 = system: NCI-H1755
Summary of the method: as §1

Compound `COc1cc(N2CCC(C(N)=O)CC2)ccc1Nc1nc(N)c(Cl)c(Nc2ccccc2S(=O)(=O)C(C)C)n1` [HG-5-88-01] + CS(=O)(=O)N1CCN(Cc2cc3nc(-c4cccc5[nH]ncc45)nc(N4CCOCC4)c3s2)CC1 [Pictilisib] (partner 1 µM) has a relative viability (HCC-78; first compound 0.04 µM) of 0.204, a relative viability (HCC-78; first compound 0.1265 µM) of 0.19 and a relative viability (HCC-78; first compound 0.4 µM) of 0.153. The relative viability (HCC-78; first compound 1.265 µM) was 0.167, the relative viability (HCC-78; first compound 4 µM) was 0.157 and the relative viability (NCI-H2228; first compound 0.04 µM) was 0.215. For the same compound, the relative viability (NCI-H2228; first compound 0.1265 µM) was 0.177, the relative viability (NCI-H2228; first compound 0.4 µM) was 0.248 and the relative viability (NCI-H2228; first compound 1.265 µM) was 0.144. It also gave a relative viability (NCI-H2228; first compound 4 µM) of 0.157, a relative viability (NCI-H460; first compound 0.04 µM) of 0.379 and a relative viability (NCI-H460; first compound 0.1265 µM) of 0.296. For the same compound, the relative viability (NCI-H460; first compound 0.4 µM) was 0.395, the relative viability (NCI-H460; first compound 1.265 µM) was 0.332 and the relative viability (NCI-H460; first compound 4 µM) was 0.277. The relative viability (NCI-H358; first compound 0.04 µM) was 0.292, the relative viability (NCI-H358; first compound 0.1265 µM) was 0.384 and the relative viability (NCI-H358; first compound 0.4 µM) was 0.302. It also gave a relative viability (NCI-H358; first compound 1.265 µM) of 0.225, a relative viability (NCI-H358; first compound 4 µM) of 0.301 and a relative viability (RERF-LC-KJ; first compound 0.04 µM) of 0.588. It also gave a relative viability (RERF-LC-KJ; first compound 0.1265 µM) of 0.714, a relative viability (RERF-LC-KJ; first compound 0.4 µM) of 0.498 and a relative viability (RERF-LC-KJ; first compound 1.265 µM) of 0.481. The relative viability (RERF-LC-KJ; first compound 4 µM) was 0.412, the relative viability (NCI-H2347; first compound 0.04 µM) was 0.603 and the relative viability (NCI-H2347; first compound 0.1265 µM) was 0.645. It also gave a relative viability (NCI-H2347; first compound 0.4 µM) of 0.683, a relative viability (NCI-H2347; first compound 4 µM) of 0.471 and a relative viability (NCI-H1734; first compound 0.04 µM) of 0.405. For the same compound, the relative viability (NCI-H1734; first compound 0.1265 µM) was 0.423, the relative viability (NCI-H1734; first compound 0.4 µM) was 0.411 and the relative viability (NCI-H1734; first compound 1.265 µM) was 0.358. For the same compound, the relative viability (NCI-H1734; first compound 4 µM) was 0.476, the relative viability (PC-3 [JPC-3]; first compound 0.04 µM) was 0.69 and the relative viability (PC-3 [JPC-3]; first compound 0.1265 µM) was 0.702. For the same compound, the relative viability (PC-3 [JPC-3]; first compound 0.4 µM) was 0.636, the relative viability (PC-3 [JPC-3]; first compound 1.265 µM) was 0.494 and the relative viability (PC-3 [JPC-3]; first compound 4 µM) was 0.266. The relative viability (LXF-289; first compound 0.04 µM) was 0.819, the relative viability (LXF-289; first compound 0.1265 µM) was 0.796 and the relative viability (LXF-289; first compound 0.4 µM) was 0.821. It also gave a relative viability (LXF-289; first compound 1.265 µM) of 0.81, a relative viability (LXF-289; first compound 4 µM) of 0.736 and a relative viability (HOP-62; first compound 0.04 µM) of 0.493. It also gave a relative viability (HOP-62; first compound 0.1265 µM) of 0.765, a relative viability (HOP-62; first compound 0.4 µM) of 0.827 and a relative viability (HOP-62; first compound 1.265 µM) of 0.892. The relative viability (HOP-62; first compound 4 µM) was 0.936, the relative viability (NCI-H647; first compound 0.04 µM) was 0.342 and the relative viability (NCI-H647; first compound 0.1265 µM) was 0.407. It also gave a relative viability (NCI-H647; first compound 0.4 µM) of 0.453, a relative viability (NCI-H647; first compound 1.265 µM) of 0.371 and a relative viability (NCI-H647; first compound 4 µM) of 0.443. The relative viability (A-427; first compound 0.04 µM) was 0.716, the relative viability (A-427; first compound 0.1265 µM) was 0.812 and the relative viability (A-427; first compound 0.4 µM) was 0.706. It also gave a relative viability (A-427; first compound 1.265 µM) of 0.914, a relative viability (A-427; first compound 4 µM) of 0.442 and a relative viability (SW 1573; first compound 0.04 µM) of 0.422. It also gave a relative viability (SW 1573; first compound 0.1265 µM) of 0.563, a relative viability (SW 1573; first compound 0.4 µM) of 0.445 and a relative viability (SW 1573; first compound 1.265 µM) of 0.392. For the same compound, the relative viability (SW 1573; first compound 4 µM) was 0.489, the relative viability (LOU-NH91; first compound 0.04 µM) was 0.495 and the relative viability (LOU-NH91; first compound 0.1265 µM) was 0.514. For the same compound, the relative viability (LOU-NH91; first compound 0.4 µM) was 0.513, the relative viability (LOU-NH91; first compound 1.265 µM) was 0.482 and the relative viability (LOU-NH91; first compound 4 µM) was 0.401. It also gave a relative viability (LC-2-ad; first compound 0.04 µM) of 0.429, a relative viability (LC-2-ad; first compound 0.1265 µM) of 0.491 and a relative viability (LC-2-ad; first compound 0.4 µM) of 0.366. The relative viability (LC-2-ad; first compound 1.265 µM) was 0.448, the relative viability (LC-2-ad; first compound 4 µM) was 0.334 and the relative viability (NCI-H1975; first compound 0.04 µM) was 0.32. The relative viability (NCI-H1975; first compound 0.1265 µM) was 0.277, the relative viability (NCI-H1975; first compound 0.4 µM) was 0.244 and the relative viability (NCI-H1975; first compound 1.265 µM) was 0.191. For the same compound, the relative viability (NCI-H1975; first compound 4 µM) was 0.17, the relative viability (NCI-H1915; first compound 0.04 µM) was 0.92 and the relative viability (NCI-H1915; first compound 0.1265 µM) was 0.973. The relative viability (NCI-H1915; first compound 0.4 µM) was 0.95, the relative viability (NCI-H1915; first compound 1.265 µM) was 1.13 and the relative viability (NCI-H1915; first compound 4 µM) was 0.806. It also gave a relative viability (NCI-H1792; first compound 0.04 µM) of 0.372, a relative viability (NCI-H1792; first compound 0.1265 µM) of 0.272 and a relative viability (NCI-H1792; first compound 0.4 µM) of 0.313. For the same compound, the relative viability (NCI-H1792; first compound 1.265 µM) was 0.253, the relative viability (NCI-H1792; first compound 4 µM) was 0.297 and the relative viability (NCI-H2126; first compound 0.04 µM) was 0.419. The relative viability (NCI-H2126; first compound 0.1265 µM) was 0.435, the relative viability (NCI-H2126; first compound 0.4 µM) was 0.513 and the relative viability (NCI-H2126; first compound 1.265 µM) was 0.501. For the same compound, the relative viability (NCI-H2126; first compound 4 µM) was 0.38, the relative viability (SK-LU-1; first compound 0.04 µM) was 0.539 and the relative viability (SK-LU-1; first compound 0.1265 µM) was 0.572. It also gave a relative viability (SK-LU-1; first compound 0.4 µM) of 0.539, a relative viability (SK-LU-1; first compound 1.265 µM) of 0.594 and a relative viability (SK-LU-1; first compound 4 µM) of 0.6. For the same compound, the relative viability (HCC-15; first compound 0.04 µM) was 0.844, the relative viability (HCC-15; first compound 0.1265 µM) was 0.831 and the relative viability (HCC-15; first compound 0.4 µM) was 0.741. For the same compound, the relative viability (HCC-15; first compound 1.265 µM) was 0.798, the relative viability (HCC-15; first compound 4 µM) was 0.515 and the relative viability (NCI-H1755; first compound 0.1265 µM) was 0.508. For the same compound, the relative viability (NCI-H1755; first compound 0.4 µM) was 0.438, the relative viability (NCI-H1755; first compound 1.265 µM) was 0.53 and the relative viability (NCI-H1755; first compound 4 µM) was 0.399.
